Test results: ChEMBL document CHEMBL3507680, “University of Dundee, Gates Library screen for HepG2 cell viability”

Assay: Human HepG2 cell viability assay in 384 well format
Assay type: toxicity, cell-based
Design: dose 125 nL, time 70.5 hour; cytotoxicity at 70.5 h: concentration not given beside the values
Settings: HepG2 cells, read-out: Inhibition

Compound	cytotoxicity at 70.5 h
CCc1ncc2c(n1)CN(CCCc1nc3ccccc3o1)CC2	0.768%
COc1cc(F)cc2sc(NC(=O)COCC3CCCO3)nc12 (configuration not stated)	13.2%
Cc1nc(C)n(CC2CCCN(CC(=O)N3CCCC3)C2)n1 (configuration not stated)	-4.82%
CCc1ccc(CN2CCN(c3ccc(Cl)nn3)CC2)nc1	-4.56%
COc1ccc(CN2CCOC3(CCCN(C(C)=O)C3)C2)cc1 (configuration not stated)	-1.06%
CCNC(=O)[C@@H]1C[C@@H](NC(=O)c2cnc[nH]c2=O)CN1Cc1ccsc1	-2.36%
O=C(c1[nH]nc2c1CCCC2)N1CCC(OCCN2CCCCC2)C1 (configuration not stated)	-2.83%
O=C(N1CCCC1)N1C[C@@H]2CCNC[C@@H]21	-12%
O=C(NCCn1cccn1)C1CCC(=O)N(CC2CCCCC2)C1 (configuration not stated)	18%
Cc1nc(CN2C(=O)CC[C@@H]3[C@H]2CCN3C2CCOCC2)cs1	-2.88%
C=C(C)Cn1nnc(C2(NC(=O)c3ccccc3)CCCC2)n1	-8.81%
CSc1nnc(CC2CCN(C(=O)COc3cccnc3)CC2)n1C	-8.54%
Cc1ccc(CN2CCc3[nH]nc(C(=O)N4CCN(C)CC4)c3C2)o1	23.5%
CN(C)CCN1CCOCC2(CCCN(C(=O)c3ccccn3)C2)C1 (configuration not stated)	0.371%
O=C(Nc1cccc(N2CCCC2)c1)C1CCCN1c1nccs1 (configuration not stated)	-2.18%
Fc1cccc(-n2ccc(CN3CCCC3Cn3cncn3)n2)c1 (configuration not stated)	-9.03%
CCc1cc(NCCCc2nc(C)no2)nc(-c2ccncc2)n1	-5.75%
Cc1nccc(N2CCCC(c3nnc(Cn4ccnc4C)n3C)C2)n1 (configuration not stated)	16.3%
NC(=O)c1nc(CN2CCOC(C(F)(F)F)C2)no1 (configuration not stated)	11.5%
Cn1ncc2c1C(COCC1CC1)CN(Cc1ccsc1)C2 (configuration not stated)	2.88%
CC(C)c1nnc2n1CC(CNCc1cccnc1)CC2 (configuration not stated)	-6.45%
CC(=O)Nc1ccc(SCC(O)COCc2ccccc2)cc1 (configuration not stated)	-12.4%
CC(C)Oc1cc(N2CCC(N3CCC(O)CC3)CC2)nc(N)n1	-7.04%

Compound	cytotoxicity at 70.5 h
COc1cc(CN2C[C@@H]3CNC(=O)[C@H](C)[C@@H]3C2)cc(OC)c1	-9.46%
O=C(c1cccnc1-n1cncn1)N1CCC(Nc2ccccc2)CC1	-0.978%
COCc1nc2n(n1)CCCC2Nc1nc(C(C)C)ns1 (configuration not stated)	-6.22%
CNc1cncc(C2CCCN2c2cc(C)ncn2)n1 (configuration not stated)	17.1%
O=C(c1ccccc1)N1CCCn2c(CN3CCCCC3)nnc2C1	26.2%
CCS(=O)(=O)N1CCN(C(=O)NC(C)C)CC2(CNC(=O)C2)C1 (configuration not stated)	-26.5%
NCc1cnn(-c2ccccc2C(=O)NCc2ccncc2)c1	-8.5%
CN(Cc1ccccc1)CC1(O)CCCN(Cc2ccc(F)cc2)C1=O (configuration not stated)	-3.64%
CC(C(=O)N1CCCCC1)n1nc(-c2cccs2)cc(N)c1=O (configuration not stated)	14.9%
CN(CCO)CC1COCCN1C(=O)CCC1CCCC1 (configuration not stated)	47.6%
O=C1Nc2ccccc2/C1=C1\CCCN1	-1.25%
COc1ccccc1OC1CCN(c2nccc(N)n2)CC1	19.5%
CC1CCCN(CCNC(=O)c2ccn(-c3cccc(F)c3)n2)C1 (configuration not stated)	1.27%
Cc1nc(C2(NCc3c(C)nn(C)c3N3CCOCC3)CCC2)no1	10.7%
CC(=O)N1CCc2nc(-c3ccccc3)nc(NC(C)C)c2CC1	-13.5%
CC(C)(C)CC(=O)N[C@@H]1CO[C@H](CNC(=O)c2ccncc2)[C@H]1O	-2.51%
CC1c2ncc(CNC(=O)C3CC3)n2CCN1Cc1cccnc1 (configuration not stated)	-5.38%
OCC1CCCN1c1cc(NCc2ccc(Cl)s2)ncn1 (configuration not stated)	-2.35%
C[C@@H]1CN(C(=O)C2(Cn3cccn3)CC2)C[C@@]1(O)C1CCC1	-0.77%
CC(NC(=O)CCCN(C)C)c1cn(-c2ccccc2)nn1 (configuration not stated)	20.9%
Cc1n[nH]c(C)c1S(=O)(=O)N1CCC(Oc2ccccc2F)CC1	-7.37%
CC(C)c1nc(-c2cc(C(=O)N3CCN(C)CC3)c3ccccn23)cs1	9.79%
COCC(=O)N1CCCC1(C)c1nc(C)cc(O)n1 (configuration not stated)	-10.5%

Compound	cytotoxicity at 70.5 h
CCOC(C)c1noc(CN2CCN(c3ccncc3)CC2)n1 (configuration not stated)	-6.31%
Cc1noc([C@@]23CCO[C@@H]2CCN(C(=O)c2c(C)noc2C)C3)n1	-1.33%
CCCC1(CO)CCCN(C(=O)CNC(C)=O)C1 (configuration not stated)	-10.4%
COc1cc(NC(=O)NC2CCOCC2)ccc1N1CCOC1=O	6.14%
COc1ncccc1CN1CCn2c(C(=O)N3CCCC3)cnc2C1	-5.02%
O=C(CCc1cccnc1)N1CCC(c2cnccn2)CC1	-6.11%
O=C(NCCS(=O)(=O)N1CCN(c2ncccn2)CC1)C1CCCC1	-5.6%
CCc1ccc2nc(-c3cnn(C)c3)cc(C(=O)N3CCOCC3)c2c1	-7.51%
CC(C)N1CCO[C@H]2CN(S(=O)(=O)c3ccc(C#N)cc3)C[C@H]21	-11.6%
COCCN(CC(C)C)c1cc(C)ncn1	6.75%
O=S1(=O)CCCN1Cc1coc(-c2cccs2)n1	-10.6%
Cc1csc2ncc(-c3ccnc(N4CCC[C@H](C(N)=O)C4)n3)c(=O)n12	14.4%
O=C1CC(c2cccs2)Cc2nc(O)c(C(=O)N3CCCC3)cc21 (configuration not stated)	-4.55%
O=C(c1ccc2[nH]cnc2c1)N1CCC(Oc2ccccn2)CC1	1.58%
CCc1nc(C2CCCN2Cc2nc3ccccc3o2)no1 (configuration not stated)	-17.9%
O=c1cc(Cn2ccnc2)nc2n1CCCN(Cc1ccncc1)C2	-21.3%
CCc1noc(CN(Cc2ccc3c(c2)OCO3)C2CCCC2)n1	-10.9%
CS(=O)(=O)c1ccccc1-n1cc(NC(=O)CC2C=CCC2)cn1 (configuration not stated)	-6.16%
CNC(=O)C1CN(C)CCN(CCCOc2ccccc2F)C1 (configuration not stated)	-3.84%
CCc1ccccc1OC1CN(C(=O)CN(C)Cc2ccncc2)C1	-8.04%
COCc1n[nH]/c(=N\C(=O)c2c3c(nc4onc(C)c24)CCC3)s1	-3.26%
CCOC(=O)N1CCC(NC(=O)Nc2cccnc2OCC)CC1	6.34%
Nc1nccnc1C(=O)NC1CCN(Cc2ccccc2)C1 (configuration not stated)	-10.2%

Compound	cytotoxicity at 70.5 h
Cc1ccn2ncc(C(=O)N3CCCC(c4cc(C)[nH]n4)C3)c2n1 (configuration not stated)	-7.17%
CC(Nc1c(F)cc(C#N)cc1F)c1cccc(S(N)(=O)=O)c1 (configuration not stated)	-9.34%
CC1=N[C@@]2(CC[C@@H]3CN(Cc4ccccc4)C[C@@H]32)C(=O)N1CC1CC1	-21.6%
Cc1cccc(C(=O)N2CCc3c(CN(C)C)nn(C)c3C2)n1	-14.3%
O=C(NCCCn1cccn1)C1(c2ccccc2)CCOCC1	-10.8%
O=C(c1nc2c(s1)CCCN2C(=O)C1CC1)N1CCOCC1	-6.48%
CC(C)c1noc(-c2ccc(NCCCC3CCOC3)nc2)n1 (configuration not stated)	-0.0541%
COc1cc(OC)cc(N2CCC(NCc3ccsc3)C2=O)c1 (configuration not stated)	33.1%
CNc1nc(C2CCCCN2C(=O)C(C)(C)OC)nc2c1CN(C)CC2 (configuration not stated)	-7.36%
CCc1nnsc1C(=O)N(C)Cc1nnc2n1CCC2	5.35%
Cn1ccc(C(=O)N2CCN(Cc3ccccc3F)CC2)cc1=O	-0.663%
CNC(=O)C(C)CNC(=O)c1coc(COc2cccc(F)c2F)n1 (configuration not stated)	-14.8%
Cc1cc(C2CCCN(C(=O)Cc3csc(C(C)C)n3)C2)n[nH]1 (configuration not stated)	-5.03%
Cn1nc(C(=O)NC2CC(C)(C)NC(C)(C)C2)cc1NC(=O)C1CC1	-8.61%
COc1ccc(-n2ccc(C(=O)N3CCN(C)CC3C)n2)cc1 (configuration not stated)	-5.83%
O=C(NCCn1ccc(-c2ccncc2)n1)c1ccncc1	-2.74%
CC(C)N(C)C(=O)C1CSCN1S(=O)(=O)c1cccs1 (configuration not stated)	-8.56%
CCOC(=O)CN1CCC2(CC1)CC(=O)c1ccc(OC)cc1O2	2.89%
Cc1nc(CN2CCO[C@H]3[C@@H](OCc4ccccn4)CC[C@@H]32)cs1	-23.4%
O=C(CCc1ccsc1)N1CCC(N2CCNC2=O)CC1	3.98%
CSc1nc2ncc3c(=O)n(C)ccc3n2n1	-8.16%
NC(=O)C1CCN(C(=O)CCSCc2ccccc2)CC1	-5.5%
N#Cc1ccc(OCC(O)CN2CCC(Cn3cccn3)CC2)cc1 (configuration not stated)	-3.6%

Compound	cytotoxicity at 70.5 h
COC(=O)COc1cccc(NS(=O)(=O)c2cc(C(=O)O)cs2)c1	10.9%
CN1CC2(CCN(S(=O)(=O)C3CC3)CC2)c2ccccc21	11%
O=C1C[C@H]2[C@@H](CCN2C(=O)c2ccc[nH]2)N1CCN1CCCC1	-2.17%
CCN(CC)c1ccc2ccc(C(=O)NC3CC3)cn12	-0.636%
Cc1nccn1CCC1CCCCN1C(=O)c1ccc(N(C)C)cc1 (configuration not stated)	-3.37%
O=C(CN1CCC(c2nnc(C(F)(F)F)o2)CC1)NCc1ccccc1	-0.907%
CN(Cc1cccnc1)CC1CC12CCCC2 (configuration not stated)	-5.63%
CC(C)(C)C(=O)N[C@H]1C[C@@H](Cc2cc(CN3CCOCC3)on2)C1(C)C	-6.62%
Cc1noc(C)c1CN1CCN(CCN(C)C)c2ncccc2C1	-2.96%
Cc1cccnc1CN1CCOC(Cc2cccc3ccccc23)C1 (configuration not stated)	-6.62%
CCN1CCN(C(=O)NCCOc2ccc3c(c2)OCO3)CC1	-11.4%
COCCNC(=O)[C@H]1CN(c2nnc(C)s2)C[C@H]2OCC[C@@H]12	-17.6%
CN1CCN(c2cc(CNC(=O)c3ccc(=O)n(C)c3)ccn2)CC1	-15.6%
O=C(CCCc1ccccn1)N1CCC(Nc2cccnn2)CC1	-0.523%
Cc1cnc(N2CC[C@@H]3O[C@@H](COCC(=O)N(C)C)CC[C@@H]32)nc1	-99.7%
Cc1nn(C)c(C)c1C1CCCN1CCOc1ccccc1C#N (configuration not stated)	1.39%
Cc1cccc(C(=O)N2CCCn3c(CN4CCCCC4)nnc3C2)c1	-11.1%
COC(=O)c1sccc1CN1CCN(C(=O)c2ccc(C)o2)CC1	-8.65%
CN(CC1(CO)CCC1)C(=O)C1CCC(=O)N(Cc2ccc(Cl)cc2)C1 (configuration not stated)	-1.24%
O=C(c1ccccn1)N1CCC2(CC1)C(=O)Nc1ccccc12	-9.49%
